Test results reported in patent US20020169101A1, “Treatment of sexual dysfunction” (priority 1999, published 2002).

Assays:
human NMB receptor (BB1) = molecular target: T1, human NMB receptor (BB1) (Homo sapiens, UniProt P28336); experiment: BB1 binding assay ([125I][Tyr4]bombesin displacement, CHO-K1 membranes); conditions: Table 3, N-acyl derivatives of Intermediate III-7
T1 construct: expressed in transfected cells; membranes prepared from the cells
Procedure: (§1) In the following experiments, measurement of BB1 and BB2 binding was as follows. CHO-K1 cells stably expressing cloned human NMB (for (BB1 assay) and GRP receptors (for BB2 assay) were routinely grown in Ham's F12 culture medium supplemented with 10% foetal calf serum and 2 mM glutamine. For binding experiments, cells were harvested by trypsinization, and stored frozen at −70° C. in Ham's F12 culture medium containing 5% DMSO until required. On the day of use, cells were thawed rapidly, diluted with an excess of culture medium, and centrifuged for 5 minutes at 2000 g. Cells were resuspended in 50 mM Tris-HCl assay buffer (pH 7.4 at 21° C., containing 0.02% BSA, 40 μg/mL bacitracin, 2 μg/mL chymostatin, 4 μg/mL leupeptin, and 2 μM phosphoramidon), counted, and polytronned (setting 5, 10 sec) before centrifuging for 10 minutes at 28,000 g. The final pellet was resuspended in assay buffer to a final cell concentration of 1.5×10^5/mL. For binding assays, […] aliquots of membranes were incubated with [^125I][Tyr^4]bombesin (<0.1 nM) in the presence and absence of test compounds (final assay volume 250 μL) for 60 minutes and 90 minutes for NMB and GRP receptors, respectively. Nonspecific binding was defined by 1 μM bombesin. Assays were terminated by rapid filtration under vacuum onto Whatman GF/C filters presoaked in 0.2% PEI for >2 hours, and washed 50 mM Tris-HCl (pH 6.9 at 21° C.; 6×1 mL). Radioactivity bound was determined using a gamma counter.
(§2) All competition data was analysed using nonlinear regression utilizing iterative curve-plotting procedures in Prism® (GraphPad Software Inc., San Diego, USA). IC50 values were corrected to Ki values using the Cheng-Prusoff equation (Cheng Y., Prusoff W. H., Biochem. Pharmacol. 22: 3099-3108, 1973). obtained are listed in Table 1.

human GRP receptor (BB2) = molecular target: T2, human GRP receptor (BB2) (Homo sapiens, UniProt P30550); experiment: BB2 binding assay ([125I][Tyr4]bombesin displacement, CHO-K1 membranes); conditions: Table 3, N-acyl derivatives of Intermediate III-7
T2 construct: expressed in transfected cells; membranes prepared from the cells
Procedure: as §1, §2

T2 sequence (P30550 whole entry): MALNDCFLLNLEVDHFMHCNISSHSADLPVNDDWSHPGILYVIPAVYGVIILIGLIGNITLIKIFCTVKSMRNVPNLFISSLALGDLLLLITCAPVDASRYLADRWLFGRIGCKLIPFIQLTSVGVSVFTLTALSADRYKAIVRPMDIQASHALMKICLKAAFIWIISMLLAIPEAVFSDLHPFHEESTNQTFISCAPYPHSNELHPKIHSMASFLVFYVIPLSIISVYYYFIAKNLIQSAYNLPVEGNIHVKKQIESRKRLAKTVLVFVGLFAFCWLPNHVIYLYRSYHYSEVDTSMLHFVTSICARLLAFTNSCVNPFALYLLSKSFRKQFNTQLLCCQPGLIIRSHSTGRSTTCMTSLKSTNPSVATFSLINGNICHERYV
T1 sequence (P28336 whole entry): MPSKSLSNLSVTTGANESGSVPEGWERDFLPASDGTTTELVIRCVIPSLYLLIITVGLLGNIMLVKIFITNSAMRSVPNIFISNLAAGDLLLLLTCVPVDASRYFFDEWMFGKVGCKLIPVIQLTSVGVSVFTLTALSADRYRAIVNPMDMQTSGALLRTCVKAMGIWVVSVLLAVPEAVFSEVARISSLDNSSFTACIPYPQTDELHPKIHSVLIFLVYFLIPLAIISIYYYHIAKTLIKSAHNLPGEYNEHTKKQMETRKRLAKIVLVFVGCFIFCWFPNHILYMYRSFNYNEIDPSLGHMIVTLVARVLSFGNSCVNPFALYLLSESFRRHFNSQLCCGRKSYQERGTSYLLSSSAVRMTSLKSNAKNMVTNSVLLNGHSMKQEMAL

Structure (SMILES) | IC50 (human NMB receptor (BB1)) [nM] | IC50 (human GRP receptor (BB2)) [nM]
Cc1ccccc1C(=O)N[C@@](C)(Cc1c[nH]c2ccccc12)C(=O)NCC1(c2ccccn2)CCCCC1 [Example 47, N—{(S)-2-(1H-Indol-3-yl)-1-methyl-1-[(1-pyridin-2-yl-cyclohexylmethyl)-carbamoyl]-ethyl}-2-methyl-benzamide] | 3280 | > 10000
C[C@@](Cc1c[nH]c2ccccc12)(NC(=O)c1ccccc1F)C(=O)NCC1(c2ccccn2)CCCCC1 [Example 49, 2-Fluoro-N—{(S)-2-(1H-indol-3-yl)-1-methyl-1-[(1-pyridin-2-yl-cyclohexylmethyl)-carbamoyl]-ethyl}-benzamide] | 3950 | > 10000
Cc1ccc(CC(=O)N[C@@](C)(Cc2c[nH]c3ccccc23)C(=O)NCC2(c3ccccn3)CCCCC2)cc1 [Example 50, (S)-3-(1H-Indol-3-yl)-2-methyl-N-(1-pyridin-2-yl-cyclohexylmethyl)-2-(2-p-tolyl-ethanoylamino)-propionamide] | 944 | > 10000
C[C@@](Cc1c[nH]c2ccccc12)(NC(=O)Cc1ccc(O)cc1)C(=O)NCC1(c2ccccn2)CCCCC1 [Example 52, (S)-2-[2-(4-Hydroxy-phenyl)-ethanoylamino]-3-(1H-indol-3-yl)-2-methyl-N-(1-pyridin-2-yl-cyclohexylmethyl)-propionamide] | 3130 | > 10000
C[C@@](Cc1c[nH]c2ccccc12)(NC(=O)Cc1cccc(O)c1)C(=O)NCC1(c2ccccn2)CCCCC1 [Example 53, (S)-2-[2-(3-Hydroxy-phenyl)-ethanoylamino]-3-(1H-indol-3-yl)-2-methyl-N-(1-pyridin-2-yl-cyclohexylmethyl)-propionamide] | 1440 | > 10000
Cc1cccc(CC(=O)N[C@@](C)(Cc2c[nH]c3ccccc23)C(=O)NCC2(c3ccccn3)CCCCC2)c1 [Example 54, (S)-3-(1H-Indol-3-yl)-2-methyl-N-(1-pyridin-2-yl-cyclohexylmethyl)-2-(2-m-tolyl-ethanoylamino)-propionamide] | 817 | > 10000
C[C@@](Cc1c[nH]c2ccccc12)(NC(=O)Cc1ccccc1F)C(=O)NCC1(c2ccccn2)CCCCC1 [Example 55, (S)-2-[2-(2-Fluoro-phenyl)-ethanoylamino]-3-(1H-indol-3-yl)-2-methyl-N-(1-pyridin-2-yl-cyclohexylmethyl)-propionamide] | 878 | 1550
C[C@@](Cc1c[nH]c2ccccc12)(NC(=O)Cc1ccsc1)C(=O)NCC1(c2ccccn2)CCCCC1 [Example 56, (S)-3-(1H-Indol-3-yl)-2-methyl-N-(1-pyridin-2-yl-cyclohexylmethyl)-2-(2-thiophen-3-yl-ethanoylamino)-propionamide] | 1440 | > 10000
C[C@@](Cc1c[nH]c2ccccc12)(NC(=O)c1ccncc1)C(=O)NCC1(c2ccccn2)CCCCC1 [Example 58] | 1360 | > 10000
C[C@@](Cc1c[nH]c2ccccc12)(NC(=O)c1cc2ccccc2[nH]1)C(=O)NCC1(c2ccccn2)CCCCC1 [Example 61, 1H-Indole-2-carboxylic acid {(S)-2-(1H-indol-3-yl)-1-methyl-1-[(1-pyridin-2-yl-cyclohexylmethyl)-carbamoyl]-ethyl}-amide] | 289 | 527
C[C@@](Cc1c[nH]c2ccccc12)(NC(=O)c1cccs1)C(=O)NCC1(c2ccccn2)CCCCC1 [Example 64, Thiophene-2-carboxylic acid {(S)-2-(1H-indol-3-yl)-1-methyl-1-[(1-pyridin-2-yl-cyclohexylmethyl)-carbamoyl]-ethyl}-amide] | 1440 | > 10000
C[C@@](Cc1c[nH]c2ccccc12)(NC(=O)c1ccsc1)C(=O)NCC1(c2ccccn2)CCCCC1 [Example 65, Thiophene-3-carboxylic acid {(S)-2-(1H-indol-3-yl)-1-methyl-1-[(1-pyridin-2-yl-cyclohexylmethyl)-carbamoyl]-ethyl}-amide] | 2200 | > 10000
C[C@@](Cc1c[nH]c2ccccc12)(NC(=O)c1ccc2cc[nH]c2c1)C(=O)NCC1(c2ccccn2)CCCCC1 [Example 66, 1H-Indole-6-carboxylic acid {(S)-2-(1H-indol-3-yl)-1-methyl-1-[(1-pyridin-2-yl-cyclohexylmethyl)-carbamoyl]-ethyl}-amide] | 1600 | > 10000
C[C@@](Cc1c[nH]c2ccccc12)(NC(=O)c1ccc2[nH]ccc2c1)C(=O)NCC1(c2ccccn2)CCCCC1 [Example 67, 1H-Indole-5-carboxylic acid {(S)-2-(1H-indol-3-yl)-1-methyl-1-[(1-pyridin-2-yl-cyclohexylmethyl)-carbamoyl]-ethyl}-amide] | 1880 | > 10000
C[C@@](Cc1c[nH]c2ccccc12)(NC(=O)c1cccc2[nH]ccc12)C(=O)NCC1(c2ccccn2)CCCCC1 [Example 68, 1H-Indole-4-carboxylic acid {(S)-2-(1H-indol-3-yl)-1-methyl-1-[(1-pyridin-2-yl-cyclohexylmethyl)-carbamoyl]-ethyl}-amide] | 4500 | > 10000
C[C@@](Cc1c[nH]c2ccccc12)(NC(=O)c1cccc2cc[nH]c12)C(=O)NCC1(c2ccccn2)CCCCC1 [Example 69, 1H-Indole-7-carboxylic acid {(S)-2-(1H-indol-3-yl)-1-methyl-1-[(1-pyridin-2-yl-cyclohexylmethyl)-carbamoyl]-ethyl}-amide] | 1370 | > 10000
Cn1c(C(=O)N[C@@](C)(Cc2c[nH]c3ccccc23)C(=O)NCC2(c3ccccn3)CCCCC2)cc2ccccc21 [Example 70, 1-Methyl-1H-indole-2-carboxylic acid {(S)-2-(1H-indol-3-yl)-1-methyl-1-[(1-pyridin-2-yl-cyclohexylmethyl)-carbamoyl]-ethyl}-amide] | 1230 | > 10000
C[C@@](Cc1c[nH]c2ccccc12)(NC(=O)c1cc2ccccc2s1)C(=O)NCC1(c2ccccn2)CCCCC1 [Example 71, Benzo[b]thiophene-2-carboxylic acid {(S)-2-(1H-indol-3-yl)-1-methyl-1-[(1-pyridin-2-yl-cyclohexylmethyl)-carbamoyl]-ethyl}-amide] | 611 | > 10000
C[C@@](Cc1c[nH]c2ccccc12)(NC(=O)c1ccc2ncsc2c1)C(=O)NCC1(c2ccccn2)CCCCC1 [Example 72, Benzothiazole-6-carboxylic acid {(S)-2-(1H-indol-3-yl)-1-methyl-1-[(1-pyridin-2-yl-cyclohexylmethyl)-carbamoyl]-ethyl}-amide] | 897 | 1490
Cc1ccsc1C(=O)N[C@@](C)(Cc1c[nH]c2ccccc12)C(=O)NCC1(c2ccccn2)CCCCC1 [Example 74, 3-Methyl-thiophene-2-carboxylic acid {(S)-2-(1H-indol-3-yl)-1-methyl-1-[(1-pyridin-2-yl-cyclohexylmethyl)-carbamoyl]-ethyl}-amide] | 744 | > 10000
Cc1ccc(C(=O)N[C@@](C)(Cc2c[nH]c3ccccc23)C(=O)NCC2(c3ccccn3)CCCCC2)s1 [Example 75, 5-Methyl-thiophene-2-carboxylic acid {(S)-2-(1H-indol-3-yl)-1-methyl-1-[(1-pyridin-2-yl-cyclohexylmethyl)-carbamoyl]-ethyl}-amide] | 1660 | > 10000
Cc1cccc(C(=O)N[C@@](C)(Cc2c[nH]c3ccccc23)C(=O)NCC2(c3ccccn3)CCCCC2)n1 [Example 76, 6-Methyl-pyridine-2-carboxylic acid {(S)-2-(1H-indol-3-yl)-1-methyl-1-[(1-pyridin-2-yl-cyclohexylmethyl)-carbamoyl]-ethyl}-amide] | 2820 | > 10000
C[C@@](Cc1c[nH]c2ccccc12)(NC(=O)c1cccc2cccnc12)C(=O)NCC1(c2ccccn2)CCCCC1 [Example 79, Quinoline-8-carboxylic acid {(S)-2-(1H-indol-3-yl)-1-methyl-1-[(1-pyridin-2-yl-cyclohexylmethyl)-carbamoyl]-ethyl}-amide] | 4480 | > 10000
C[C@@](Cc1c[nH]c2ccccc12)(NC(=O)c1ncoc1-c1ccccc1)C(=O)NCC1(c2ccccn2)CCCCC1 [Example 80, 5-Phenyl-oxazole-4-carboxylic acid {(S)-2-(1H-indol-3-yl)-1-methyl-1-[(1-pyridin-2-yl-cyclohexylmethyl)-carbamoyl]-ethyl}-amide] | 2660 | > 10000
C[C@@](Cc1c[nH]c2ccccc12)(NC(=O)c1ccccc1-n1cccc1)C(=O)NCC1(c2ccccn2)CCCCC1 [Example 81, N—{(S)-2-(1H-Indol-3-yl)-1-methyl-1-[(1-pyridin-2-yl-cyclohexylmethyl)-carbamoyl]-ethyl}-2-pyrrol-1-yl-benzamide] | 361 | > 10000
